Assay results reported in US7314624B2 (priority 2001, dated 2008).

What was measured:
Format in all cases: cell-based
S. typhimurium = tested on: S. typhimurium
S. dysenteriae = conditions: 15 minutes; bacteria alone 910,000 CFU; X8P 1/100 dilution; EDTA 50-25 μM
[1] = tested on: Influenza virus A/AA/6/60

| Compound | bacterial count after treatment (CFU) (S. typhimurium) | bacterial count after treatment (CFU) (S. dysenteriae) | inhibition of infectivity of influenza A virus [1] | reduction of influenza A infection of MDCK cells [1] |
| --- | --- | --- | --- | --- |
| O=C(O)CN(CCN(CC(=O)O)CC(=O)O)CC(=O)O [EDTA, ethylenediamine-tetraacetic acid] | 790,000 CFU | 320,000 CFU |  |  |
| 4-(1,1,3,3-Tetramethylbutyl)phenvl-polyethylene glycol [TRITON X-100] |  |  | only partially inhibited | completely ineffective |
